# Test results taken from US10857196B2, “Bicyclic peptide ligands and uses thereof” (BicycleTx Limited, priority 2017, dated 2020).
# Numbered stars: 1 amine (or outer) side, 2 acyl side, 3 side chain; on linkers, the order of the positions; unused ones are H or OH. Bridge positions count the residues as written; N and C are the ends. Square brackets hold non-standard residues; d marks the D form. Peptide text beside a SMILES is read from it. X8 = O=C(C[*:1])NCCn1c(=O)n(CCNC(=O)C[*:2])c(=O)n(CCNC(=O)C[*:3])c1=O; X7 = O=S(=O)(CC[*:1])N1CCN(S(=O)(=O)CC[*:2])CCN(S(=O)(=O)CC[*:3])CC1; X6 = O=S(=O)(CC[*:1])c1cc(S(=O)(=O)CC[*:2])cc(S(=O)(=O)CC[*:3])c1; X1 = O=C(CC[*:1])N1CC23CN(C(=O)CC[*:2])CC2(C1)CN(C(=O)CC[*:3])C3; X9 = O=C(C[*:1])N1CCOCCN(C(=O)C[*:2])CCOCCN(C(=O)C[*:3])CCOCC1; X3 = O=C(C[*:1])N1CC23CN(C(=O)C[*:2])CC2(C1)CN(C(=O)C[*:3])C3; X2 = O=C(CC[*:1])N1CCN(C(=O)CC[*:2])CCN(C(=O)CC[*:3])CC1; X5 = O=C(C[*:1])N1CCN(C(=O)C[*:2])CCN(C(=O)C[*:3])CC1; X4 = O=C(C[*:1])NCCN(CCNC(=O)C[*:2])CCNC(=O)C[*:3]; 1Nal = N[C@@H](Cc1cccc2ccccc12)C(=O)O; Tle = CC(C)(C)[C@H](N)C(=O)O
# Key:
# CAIX = CAIX (Homo sapiens, UniProt Q16790); test: CAIX competition binding assay (competition fluorescence polarization); conditions: fluorescent ligand A-(CAECWIDGWVPC)-A-Sar6-K(Fl)
# Procedure: CAIX Competition Binding Assay Affinity of the peptides of the invention for human CAIX (Ki) was determined using a competition fluorescence polarization assay analogous to that described in Dubois et al. (2011) Radiotherapy and Oncology 99(3), 424-43 using A-(CAECWIDGWVPC)-A-Sar6-K(Fl) (SEQ ID NO: 5) as the fluorescent ligand.
# A Ki value designated “A” denotes a Ki of ≤50 nM; a Ki value designated “B” denotes a K, of >50 nM and ≤100 nM; a Ki value designated “C” denotes a Ki of >100 nM and ≤1,000 nM; and a Ki value designated “D” denotes a Ki of >1,000 nM.
# MT1-MMP hemopexin domain = MT1-MMP hemopexin domain (Homo sapiens, UniProt P50281); test: Direct binding fluorescence polarization (anisotropy) assay
# Procedure: Direct Binding Fluorescence Polarization or Anisotropy Assays are performed by titrating a constant concentration of fluorescent tracer (here, the fluoresceinated bicyclic peptide to be studied) with its binding partner (here, the MT1-MMP hemopexin domain). As the concentration of binding partner increases during the titration, the polarization signal changes in proportion to the fraction of bound and unbound material. This allows determination of […] (Kd) quantitatively. Assay data can be fit using standard ligand binding equations.
# Typically, concentrations of the tracer are ideally well below the Kd of the tracer:titrant pair, and concentrations chosen are usually at ˜1 nM or less. The titrant (binding partner) concentration is varied from 0.1 nM up to typically 5 μM. The range is chosen such that the maximum change in fluorescent polarization can be observed. Buffers employed are phosphate buffered saline in the presence of 0.01% Tween. Experiments were run in black 384 well low-bind/low volume plates (Corning 3820), and the fluorescent polarization signal was measured using a BMG Pherastar FS plate reader. Fluorescent tracers referred to in the text are bicyclic peptides that have been fluoresceinated using 5,6-carboxyfluorescein. Fluoresceination may be performed on the N-terminal amino group of the peptide, which is separated from the bicycle core sequence by a sarcosine spacer (usually Sar5). This can be done during Fmoc solid phase synthesis or post-synthetically (after cyclization with the molecular scaffold reagent and purification) if the N-terminal amino group is unique to the peptide. Fluoresceination can also be performed on the C-terminus, usually on a Lysine introduced as the first C-terminal residue, which is then separated from the bicycle core sequence by a sarcosine spacer (usually Sar6). Thus, N-terminal tracers can have a molecular format described as Fluo-Gly-Sar5-A(BicycleCoreSequence), and (BicycleCoreSequence)-A-Sar6-K(Fluo) for a C-terminally fluoresceinated construct.
# Fluorescent tracers used in the Examples are A-(17-69)-A-Sar6-K(Fluo), A-(17-69-07)-A-Sar6-K(Fluo), and A-(17-69-12)-A-Sar6-K(Fluo). Due to the acidic nature of the 17-69 fluorescent peptides, they were typically prepared as concentrated DMSO stocks, from which dilution were prepared in 100 mM Tris pH 8 buffer.
# Results from the direct binding fluorescence polarization (anisotropy) assays is depicted in Table 3, below. A K, value designated “A” denotes a Ki of ≤50 nM; a Ki value designated “B” denotes a Ki of >50 nM and ≤100 nM; a Ki value designated “C” denotes a Ki of >100 nM and ≤1,000 nM; and a Ki value designated “D” denotes a Ki of >1,000 nM.
SMILES,Ki (CAIX),Ki (MT1-MMP hemopexin domain)
CC(C)[C@@H]1NC(=O)[C@H](Cc2c[nH]c3ccccc23)NC(=O)[C@@H]2CSCC(=O)NCCn3c(=O)n(c(=O)n(c3=O)CCNC(=O)CSC[C@H](NC(=O)[C@H](C)NC(=O)CN(C)C(=O)CN(C)C(=O)CN(C)C(=O)CN(C)C(=O)CN(C)C(=O)CN(C)C(=O)CN(C)C(=O)CN(C)C(=O)CN(C)C(=O)CN(C)C(=O)CCN)C(=O)N[C@@H]([C@@H](C)O)C(=O)N[C@@H](CCC(=O)O)C(=O)N2)CCNC(=O)CSC[C@@H](C(=O)O)NC(=O)[C@@H]2CCCN2C(=O)[C@H](C(C)C)NC(=O)[C@H](Cc2c[nH]c3ccccc23)NC(=O)CNC(=O)[C@H](CC(=O)O)NC1=O [Compound I-19],50 to 100 nM,–
CC(C)[C@@H]1NC(=O)[C@H](Cc2c[nH]c3ccccc23)NC(=O)[C@@H]2CSCC(=O)N3CCN(CCN(CC3)C(=O)CSC[C@H](NC(=O)[C@H](C)NC(=O)CN(C)C(=O)CN(C)C(=O)CN(C)C(=O)CN(C)C(=O)CN(C)C(=O)CN(C)C(=O)CN(C)C(=O)CN(C)C(=O)CN(C)C(=O)CN(C)C(=O)CCN)C(=O)N[C@@H]([C@@H](C)O)C(=O)N[C@@H](CCC(=O)O)C(=O)N2)C(=O)CSC[C@@H](C(N)=O)NC(=O)[C@@H]2CCCN2C(=O)[C@H](C(C)C)NC(=O)[C@H](Cc2c[nH]c3ccccc23)NC(=O)CNC(=O)[C@H](CC(=O)O)NC1=O [Compound I-21],100 to 1000 nM,–
CC(C)[C@@H]1NC(=O)[C@H](Cc2c[nH]c3ccccc23)NC(=O)[C@@H]2CSCCC(=O)N3CCN(CCN(CC3)C(=O)CCSC[C@H](NC(=O)[C@H](C)NC(=O)CN(C)C(=O)CN(C)C(=O)CN(C)C(=O)CN(C)C(=O)CN(C)C(=O)CN(C)C(=O)CN(C)C(=O)CN(C)C(=O)CN(C)C(=O)CN(C)C(=O)CCN)C(=O)N[C@@H]([C@@H](C)O)C(=O)N[C@@H](CCC(=O)O)C(=O)N2)C(=O)CCSC[C@@H](C(N)=O)NC(=O)[C@@H]2CCCN2C(=O)[C@H](C(C)C)NC(=O)[C@H](Cc2c[nH]c3ccccc23)NC(=O)CNC(=O)[C@H](CC(=O)O)NC1=O [Compound I-22],100 to 1000 nM,–
C[C@H](N)C(=O)N[C@H]1CSCC(=O)NCCn2c(=O)n3c(=O)n(c2=O)CCNC(=O)CSC[C@H](NC(=O)[C@@H](C)NC(=O)[C@H](Cc2cccc4ccccc24)NC(=O)[C@H](CCC(=O)O)NC(=O)[C@H](CC(N)=O)NC(=O)[C@@H](C)NC1=O)C(=O)N[C@@H](CCC(=O)O)C(=O)N[C@@H](CC(=O)O)C(=O)N[C@@H](Cc1ccccc1)C(=O)N[C@@H](Cc1ccc(O)cc1)C(=O)N[C@@H](CC(=O)O)C(=O)N[C@@H](C(C)(C)C)C(=O)N[C@H](C(N)=O)CSCC(=O)NCC3 [Compound I-52] (H-AC[dA]NE[1Nal][dA]CEDFYD[Tle]C-NH2; linker 2-8-15 via X8),–,100 to 1000 nM
C[C@H](N)C(=O)N[C@H]1CSCC(=O)N2CCN3CCN(CC2)C(=O)CSC[C@H](NC(=O)[C@@H](C)NC(=O)[C@H](Cc2cccc4ccccc24)NC(=O)[C@H](CCC(=O)O)NC(=O)[C@H](CC(N)=O)NC(=O)[C@@H](C)NC1=O)C(=O)N[C@@H](CCC(=O)O)C(=O)N[C@@H](CC(=O)O)C(=O)N[C@@H](Cc1ccccc1)C(=O)N[C@@H](Cc1ccc(O)cc1)C(=O)N[C@@H](CC(=O)O)C(=O)N[C@@H](C(C)(C)C)C(=O)N[C@H](C(N)=O)CSCC3=O [Compound I-54] (H-AC[dA]NE[1Nal][dA]CEDFYD[Tle]C-NH2; linker 2-8-15 via X5),–,≤ 50 nM
C[C@H](N)C(=O)N[C@H]1CSCCC(=O)N2CCN3CCN(CC2)C(=O)CCSC[C@H](NC(=O)[C@@H](C)NC(=O)[C@H](Cc2cccc4ccccc24)NC(=O)[C@H](CCC(=O)O)NC(=O)[C@H](CC(N)=O)NC(=O)[C@@H](C)NC1=O)C(=O)N[C@@H](CCC(=O)O)C(=O)N[C@@H](CC(=O)O)C(=O)N[C@@H](Cc1ccccc1)C(=O)N[C@@H](Cc1ccc(O)cc1)C(=O)N[C@@H](CC(=O)O)C(=O)N[C@@H](C(C)(C)C)C(=O)N[C@H](C(N)=O)CSCCC3=O [Compound I-55] (H-AC[dA]NE[1Nal][dA]CEDFYD[Tle]C-NH2; linker 2-8-15 via X2),–,50 to 100 nM
C[C@H](N)C(=O)N[C@H]1CSCCC(=O)N2CC34CN5CC3(C2)CN(C4)C(=O)CCSC[C@H](NC(=O)[C@@H](C)NC(=O)[C@H](Cc2cccc3ccccc23)NC(=O)[C@H](CCC(=O)O)NC(=O)[C@H](CC(N)=O)NC(=O)[C@@H](C)NC1=O)C(=O)N[C@@H](CCC(=O)O)C(=O)N[C@@H](CC(=O)O)C(=O)N[C@@H](Cc1ccccc1)C(=O)N[C@@H](Cc1ccc(O)cc1)C(=O)N[C@@H](CC(=O)O)C(=O)N[C@@H](C(C)(C)C)C(=O)N[C@H](C(N)=O)CSCCC5=O [Compound I-56] (H-AC[dA]NE[1Nal][dA]CEDFYD[Tle]C-NH2; linker 2-8-15 via X1),–,100 to 1000 nM
C[C@H](N)C(=O)N[C@H]1CSCC(=O)N2CC34CN5CC3(C2)CN(C4)C(=O)CSC[C@H](NC(=O)[C@@H](C)NC(=O)[C@H](Cc2cccc3ccccc23)NC(=O)[C@H](CCC(=O)O)NC(=O)[C@H](CC(N)=O)NC(=O)[C@@H](C)NC1=O)C(=O)N[C@@H](CCC(=O)O)C(=O)N[C@@H](CC(=O)O)C(=O)N[C@@H](Cc1ccccc1)C(=O)N[C@@H](Cc1ccc(O)cc1)C(=O)N[C@@H](CC(=O)O)C(=O)N[C@@H](C(C)(C)C)C(=O)N[C@H](C(N)=O)CSCC5=O [Compound I-57] (H-AC[dA]NE[1Nal][dA]CEDFYD[Tle]C-NH2; linker 2-8-15 via X3),–,100 to 1000 nM
C[C@H](N)C(=O)N[C@H]1CSCC(=O)N2CCOCCN3CCOCCN(CCOCC2)C(=O)CSC[C@H](NC(=O)[C@@H](C)NC(=O)[C@H](Cc2cccc4ccccc24)NC(=O)[C@H](CCC(=O)O)NC(=O)[C@H](CC(N)=O)NC(=O)[C@@H](C)NC1=O)C(=O)N[C@@H](CCC(=O)O)C(=O)N[C@@H](CC(=O)O)C(=O)N[C@@H](Cc1ccccc1)C(=O)N[C@@H](Cc1ccc(O)cc1)C(=O)N[C@@H](CC(=O)O)C(=O)N[C@@H](C(C)(C)C)C(=O)N[C@H](C(N)=O)CSCC3=O [Compound I-58] (H-AC[dA]NE[1Nal][dA]CEDFYD[Tle]C-NH2; linker 2-8-15 via X9),–,50 to 100 nM
C[C@H](N)C(=O)N[C@H]1CSCCS(=O)(=O)N2CCN3CCN(CC2)S(=O)(=O)CCSC[C@@H](NC(=O)[C@@H](C)NC(=O)[C@H](Cc2cccc4ccccc24)NC(=O)[C@H](CCC(=O)O)NC(=O)[C@H](CC(N)=O)NC(=O)[C@@H](C)NC1=O)C(=O)N[C@@H](CCC(=O)O)C(=O)N[C@@H](CC(=O)O)C(=O)N[C@@H](Cc1ccccc1)C(=O)N[C@@H](Cc1ccc(O)cc1)C(=O)N[C@@H](CC(=O)O)C(=O)N[C@@H](C(C)(C)C)C(=O)N[C@H](C(N)=O)CSCCS3(=O)=O [Compound I-59] (H-AC[dA]NE[1Nal][dA][dC]EDFYD[Tle]C-NH2; linker 2-8-15 via X7),–,> 1000 nM
C[C@H](N)C(=O)N[C@H]1CSCC(=O)NCCN2CCNC(=O)CSC[C@@H](C(=O)O)NC(=O)[C@H](C(C)(C)C)NC(=O)[C@H](CC(=O)O)NC(=O)[C@H](Cc3ccc(O)cc3)NC(=O)[C@H](Cc3ccccc3)NC(=O)[C@H](CC(=O)O)NC(=O)[C@H](CCC(=O)O)NC(=O)[C@H](CSCC(=O)NCC2)NC(=O)[C@@H](C)NC(=O)[C@H](Cc2cccc3ccccc23)NC(=O)[C@H](CCC(=O)O)NC(=O)[C@H](CC(N)=O)NC(=O)[C@@H](C)NC1=O [Compound I-60] (H-AC[dA]NE[1Nal][dA]CEDFYD[Tle]C-OH; linker 2-8-15 via X4),–,100 to 1000 nM
C[C@H](N)C(=O)N[C@H]1CSCCS(=O)(=O)c2cc3cc(c2)S(=O)(=O)CCSC[C@@H](NC(=O)[C@@H](C)NC(=O)[C@H](Cc2cccc4ccccc24)NC(=O)[C@H](CCC(=O)O)NC(=O)[C@H](CC(N)=O)NC(=O)[C@@H](C)NC1=O)C(=O)N[C@@H](CCC(=O)O)C(=O)N[C@@H](CC(=O)O)C(=O)N[C@@H](Cc1ccccc1)C(=O)N[C@@H](Cc1ccc(O)cc1)C(=O)N[C@@H](CC(=O)O)C(=O)N[C@@H](C(C)(C)C)C(=O)N[C@H](C(N)=O)CSCCS3(=O)=O [Compound I-61] (H-AC[dA]NE[1Nal][dA][dC]EDFYD[Tle]C-NH2; linker 2-8-15 via X6),–,≤ 50 nM
